Test results as given in BindingDB's records for doi:10.7270/Q2H993J6 (Pcmd, 2008).
*1 amine or outer side, *2 acyl side, *3 side chain or, on linkers, in order; H or OH if unused. Where a SMILES comes first, the peptide text is derived from it. CO = O=C([*:1])[*:2]

molecular target: Coagulation factor XI (Homo sapiens, UniProt P03951); assay: factor XIa inhibitor concentration-response – biochemical, hits from 1536-well screen, dose response (AID 846); settings: pH 7.4; 23 °C
Sequence (P03951 19-387 limits assumed): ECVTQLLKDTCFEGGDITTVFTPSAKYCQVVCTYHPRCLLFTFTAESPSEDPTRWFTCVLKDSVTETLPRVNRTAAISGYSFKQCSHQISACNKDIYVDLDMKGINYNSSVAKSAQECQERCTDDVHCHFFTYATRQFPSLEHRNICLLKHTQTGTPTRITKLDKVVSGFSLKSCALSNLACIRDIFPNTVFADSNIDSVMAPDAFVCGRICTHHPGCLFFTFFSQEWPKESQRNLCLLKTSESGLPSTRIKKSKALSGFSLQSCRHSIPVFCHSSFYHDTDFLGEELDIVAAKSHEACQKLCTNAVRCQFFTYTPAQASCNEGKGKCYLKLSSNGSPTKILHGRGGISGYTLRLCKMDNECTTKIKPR
Sequence (P03951 388-625 limits assumed): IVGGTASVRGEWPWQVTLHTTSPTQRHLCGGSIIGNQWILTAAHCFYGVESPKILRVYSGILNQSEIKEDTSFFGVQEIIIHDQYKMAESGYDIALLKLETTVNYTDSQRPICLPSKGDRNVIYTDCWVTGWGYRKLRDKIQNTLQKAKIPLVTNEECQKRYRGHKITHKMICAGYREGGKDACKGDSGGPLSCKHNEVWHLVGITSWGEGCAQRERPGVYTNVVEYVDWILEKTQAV

| SMILES | IC50 [µM] |
| --- | --- |
| CC1(C)C2CCC(C2)C1(C)/N=C1\OC(CCl)CS1 (stereo unspecified) [MLS001012164] | > 50 |
| CCn1nc(CC(=O)O)c2ccccc2c1=O [2-(3-ethyl-4-oxidanylidene-phthalazin-1-yl)ethanoic acid] | > 50 |
| COC(=O)c1cccc(NC(=O)CSc2nnc[nH]2)c1 [methyl 3-{[(4H-1,2,4-triazol-3-ylthio)acetyl]amino}benzoate] | > 50 |
| COc1cccc(C=NNC(=O)c2[nH]c(C)c(C(=O)NN=Cc3cccc(OC)c3O)c2C)c1O [SMR000162187] | > 50 |
| O=C(Oc1ccc2c(=O)c(Cl)coc2c1)c1cccnc1 [MLS000523505] | > 50 |
| CC(=O)Nc1ccc(S(=O)(=O)NNC(=O)COc2ccc(Cl)cc2Cl)cc1 [MLS000777409] | > 50 |
| CCn1c(C)nc2cc(C(=O)NN=C(C)c3ccc(OC)cc3O)ccc21 [1-ethyl-N'-[(1E)-1-(4-methoxy-6-oxidanylidene-cyclohexa-2,4-dien-1-ylidene)ethyl]-2-methyl-benzimidazole-5-carbohydrazide] | > 50 |
| COc1ccc(C)cc1NC(=O)COC(=O)C1CCN(C(=O)c2ccc(Cl)cc2)CC1 [[2-[(2-methoxy-5-methyl-phenyl)amino]-2-oxidanylidene-ethyl] 1-(4-chlorophenyl)carbonylpiperidine-4-carboxylate] | > 50 |
| COc1ccc2c(c1)-c1nc(NC(=O)c3cccs3)sc1CC2 [N-(8-methoxy-4,5-dihydrobenzo[e][1,3]benzothiazol-2-yl)-2-thiophenecarboxamide] | 41.3 |
| FC(F)C(F)(F)C(F)(F)C(F)(F)c1cc(-c2ccccc2)n[nH]1 [MLS000106686] | > 50 |
| COc1ccc(C=NNC(=O)CCn2cnc3ccccc32)cc1 [MLS000769034] | > 50 |
| O=C1OCC2OC(O)C(O)C(O)C2OC(=O)c2cc(O)c(O)c(O)c2-c2c(O)c(O)c3oc(=O)c4c(c(O)c(O)c5oc(=O)c2c3c54)-c2c1cc(O)c(O)c2O (stereo unspecified) [SMR000445568] | 6.08 |
| CCOC(=O)Cc1csc(NC(=O)CC(C)(C)CC(=O)O)n1 [5-[[4-(2-ethoxy-2-oxidanylidene-ethyl)-1,3-thiazol-2-yl]amino]-3,3-dimethyl-5-oxidanylidene-pentanoic acid] | > 50 |
| NS(=O)(=O)c1ccc(CCNC(=O)Cc2ccccc2[N+](=O)[O-])cc1 [MLS000689902] | > 50 |
| CC(Cc1ccccc1)=NNC(=O)CNC(=O)c1ccccc1Cl [2-chloro-N-[2-oxo-2-[2-(1-phenylpropan-2-ylidene)hydrazinyl]ethyl]benzamide] | > 50 |
| O=C(c1cc(Cl)nc2ccccc12)N1CCc2ccccc2C1 [SMR000347901] | > 50 |
| Cc1cc(C)c(S(=O)(=O)ON2C(=O)c3ccccc3C2=O)cc1C [MLS000577081] | 1.01 |
| Clc1ccccc1Cn1nnc2c(NCCN3CCOCC3)ncnc21 [3-[(2-chlorophenyl)methyl]-N-(2-morpholin-4-ylethyl)triazolo[4,5-d]pyrimidin-7-amine] | > 50 |
| CC(C)[C@H](NC(=O)[C@H](CCCNC(=N)N)NC(=O)N[C@@H](Cc1ccccc1)C(=O)O)C(=O)N[C@H](C=O)CCCNC(=N)N [2-[[[[(2S)-5-(diaminomethylideneamino)-1-[[(2S)-1-[[5-(diaminomethylideneamino)-1-oxopentan-2-yl]amino]-3-methyl-1-oxobutan-2-yl]amino]-1-oxopentan-2-yl]amino]-oxomethyl]amino]-3-phenylpropanoic acid] ({Phe-CO}-Arg-Val-Arg-aldehyde) | 3.81 |
| CC(C)(C)C(=O)CSc1ncnc2c1cnn2-c1ccccc1 | > 50 |
| O=C(Nc1nc(-c2ccc(Cl)s2)cs1)c1cccs1 [SMR000065041] | 0.364 |
| CCOC(=O)C(=O)N(Nc1ccc(C)cc1)c1ccc(C)cc1 | > 50 |

| SMILES | IC50 [µM] |
| --- | --- |
| CCCN(CCC)S(=O)(=O)c1ccc(C(=O)NNc2nc(-c3ccccc3)c3cc(Br)ccc3n2)cc1 [4-[[(6-bromo-4-phenylquinazolin-2-yl)amino]carbamoyl]-N,N-dipropylbenzenesulfonamide] | > 50 |
| Cc1nn(C)c(C)c1C=C(C(=O)C(C)C)n1cncn1 [SMR000427822] | > 50 |
| O=C(O)CCCC(=O)N1N=C(c2ccccc2)CC1c1cccs1 (stereo unspecified) [SMR000414955] | > 50 |
| Cc1ccc(C(=O)C(=O)c2ccc(C)c(N)c2)cc1N | > 50 |
| COc1ccc(-c2n[nH]cc2C2N=C(N)Nc3nc4ccccc4n32)cc1 (stereo unspecified) | > 50 |
| Cc1ccc(NC(=S)NCCc2ccccc2)nc1 [N-(2-Phenethyl)-N -(2-(5-methylpyridyl))thiourea] | 5.5 |
| CC1=NN(C(C#N)c2ccc([N+](=O)[O-])cc2)C(C)(C)C1 (stereo unspecified) [MLS001049177] | > 50 |
| [O-][S+](NC1CCCCC1)C12CC3CC(CC(C3)C1)C2 (stereo unspecified) | > 50 |
| O=C(NN=C1CCCC1)c1ccccc1OCc1ccc(Cl)cc1 | > 50 |
| O=C(Oc1ccc(=O)n(-c2ccccc2)n1)c1ccc(Cl)cc1 [4-chlorobenzoic acid (6-oxo-1-phenyl-3-pyridazinyl) ester] | 5.6 |
| Cc1nc2cc(NC(=O)Nc3cccc(F)c3)ccc2n1C [MLS000708492] | > 50 |
| CC(C=NNC(=O)c1cc(-c2cccn2C)n[nH]1)=Cc1ccccc1 | > 50 |
| Cc1cc(C)c(C)c(S(=O)(=O)ON2C(=O)c3ccccc3C2=O)c1C [2-{[(2,3,5,6-tetramethylphenyl)sulfonyl]oxy}-1H-isoindole-1,3(2H)-dione] | 3.2 |
| COc1ccc(C(=O)Nc2ccc(N3CCN(c4ccc(OC)cc4)CC3)c(C#N)c2)cc1 [N-[3-cyano-4-[4-(4-methoxyphenyl)piperazin-1-yl]phenyl]-4-methoxy-benzamide] | > 50 |
| CCOC(=O)c1ccc(NC(=O)Nc2cccc(C)n2)cc1 [MLS000679527] | > 50 |
| Cc1onc(-c2ccccc2)c1C(=O)N(Cc1ccco1)Cc1cccs1 [MLS000771400] | > 50 |
| CC(C)N(Cc1ccccc1)C(S)=NC1CCCCC1 [MLS001033857] | > 50 |
| O=C(NC1CCCC1)C(c1ccccn1)N(C(=O)c1csnn1)C1CC1 (stereo unspecified) [N-[2-(cyclopentylamino)-2-oxo-1-(2-pyridinyl)ethyl]-N-cyclopropyl-4-thiadiazolecarboxamide] | > 50 |
| COC(=O)c1[nH]c2cc(OC)ccc2c1NC(=O)CCN1CCCCC1 [MLS000041334] | > 50 |
| CN(C)c1ccc(C(=S)N2CCN(c3ccc([N+](=O)[O-])cc3)CC2)cc1 [MLS001033622] | > 50 |
| Cc1cccc(OCC(=O)NN=Cc2ccccc2C(=O)O)c1 [SMR000372421] | > 50 |
| CCCOC(=O)c1ccc(Oc2c[nH]nc2-c2ccc(OCC(=O)NN)cc2O)cc1 [4-[[(3E)-3-[4-(2-hydrazinyl-2-oxoethoxy)-6-oxo-1-cyclohexa-2,4-dienylidene]-1,2-dihydropyrazol-4-yl]oxy]benzoic acid propyl ester] | > 50 |

| SMILES | IC50 [µM] |
| --- | --- |
| COc1c(C)cc(C(=O)C2CCCN(S(=O)(=O)c3c(C)noc3C)C2)cc1C (stereo unspecified) [MLS000693702] | > 50 |
| O=C(NCc1ccc2c3c(cccc13)C(=O)N2)c1cccs1 [N-[(2-oxo-1H-benzo[cd]indol-6-yl)methyl]thiophene-2-carboxamide] | > 50 |
| COc1ccc(N(CC(=O)NCc2ccc(Cl)cc2)S(=O)(=O)c2ccccc2[N+](=O)[O-])c(OC)c1 [N-[(4-chlorophenyl)methyl]-2-(2,4-dimethoxy-N-(2-nitrophenyl)sulfonylanilino)acetamide] | > 50 |
| CC1=C(C(=O)OCCOc2ccccc2)C(c2ccsc2)NC(=O)N1C (stereo unspecified) [2-phenoxyethyl 3,4-dimethyl-2-oxo-6-thiophen-3-yl-1,6-dihydropyrimidine-5-carboxylate] | > 50 |
| Cc1ccc(CN2C(=O)C(=NNC(=S)Nc3ccccc3F)c3cc(S(=O)(=O)N4CCOCC4)ccc32)cc1 [SMR000314855] | > 50 |
| COc1cc(C=NNC(=O)c2ccc(CN3C(=O)c4cccc5cccc3c45)cc2)cc(OC)c1O [MLS001033788] | > 50 |
| CCN(CC)CCNC(=O)c1ccc(NC(=O)c2cccc(S(=O)(=O)Nc3ccc(C)cc3)c2)cc1 [potassium;[3-[[4-[2-(diethylamino)ethylcarbamoyl]phenyl]carbamoyl]phenyl]sulfonyl-(4-methylphenyl)azanide] | > 50 |
| Cc1cc(C(=O)Cn2nc(C(=O)O)c3ccccc3c2=O)c(C)n1-c1cccc(C(F)(F)F)c1 | > 50 |
| CC/C=C/C(=O)N1CC2(CC(c3cccc(NC(=O)CCCCC)c3)=NO2)C[C@H]1C(N)=O (stereo partly drawn) [(8S)-3-[3-(hexanoylamino)phenyl]-7-[(E)-pent-2-enoyl]-1-oxa-2,7-diazaspiro[4.4]non-2-ene-8-carboxamide] | 9.23 |
| CCOc1cc(CO)ccc1OCC(=O)N1CCCCC1 [2-[2-ethoxy-4-(hydroxymethyl)phenoxy]-1-(1-piperidinyl)ethanone] | > 50 |
| Fc1ccc(Nc2ccc3ccccc3n2)c(F)c1 [MLS001004714] | > 50 |
| COc1ccccc1CC(=O)NCc1csc(-c2cccs2)n1 [MLS000859819] | > 50 |
| CCCCCC(=O)Nc1cccc([C+]2CC3(CC(C(N)=O)N(C(=O)c4cc([N+](=O)[O-])cc([N+](=O)[O-])c4C)C3)O[N-]2)c1 (stereo unspecified) [MLS000561980] | 34.4 |
| Cc1n[nH]c(C)c1CCC(=O)NN=Cc1c[nH]c2ccccc12 [3-(3,5-Dimethyl-1H-pyrazol-4-yl)-propionic acid [1-(1H-indol-3-yl)-meth-(E)-ylidene]-hydrazide] | > 50 |
| CCc1ccccc1-n1c(O)cc(=O)[nH]c1=O | > 50 |
| CCc1nnc(NC(=O)c2ccc(NC(=O)C(C)C)cc2)s1 [SMR000290444] | > 50 |
| COc1ccc(S(=O)(=O)NCCOc2cccc3cccnc23)cc1OC [MLS000716779] | > 50 |
| COc1cc(C(=O)NCC(=O)OCn2nnc3ccccc3c2=O)cc(OC)c1OC [MLS001007360] | > 50 |
| COc1ccc([N+](=O)[O-])cc1NCc1ccco1 [N-(2-furanylmethyl)-2-methoxy-5-nitroaniline] | > 50 |
| C/C=C(\C)C(=O)OC1c2c(ccc3ccc(=O)oc23)OC(C)(C)C1OC(C)=O (stereo unspecified) [MLS000121833] | > 50 |
| O=C(Nc1nc(-c2cccs2)cs1)c1ccc(Cl)cc1 [4-chloro-N-(4-thiophen-2-yl-2-thiazolyl)benzamide] | 17.3 |
| CC(C)NC(=O)CSc1nc(-c2ccccc2)cs1 [2-[(4-phenyl-1,3-thiazol-2-yl)sulfanyl]-N-propan-2-yl-ethanamide] | > 50 |
